Here are results for four molecules from patent publication US4487965A, “Trans-3-(4'-tert.-Butylcyclohex-1'yl)-2-methyl-1-dialkylaminopropanes, their preparation and their use as drugs” (BASF Aktiengesellschaft, priority 1982, dated 1984).

The subject of assay [1] is Trichophyton mentagrophytes. The experiment in a line: guinea pig trichophytosis model, external application. Type of assay: in vivo. The settings on record: externally once daily. How it is done: Furthermore, the novel compounds were tested in the guinea pig trichophyt is model (Trichophyton mentagrophytes; cf. Heffter-Heubner: Handbuch der experimentellen Pharmakologie, Volume XVI/11A, Springer Verlag, Berlin, Heidelberg, New York, 1967), in which the compounds were applied externally in the form of 0.2, 0.5 and 1% strength suspensions. Application was effected once daily for 4 and 7 days respectively. After the 4th and 7th day of treatment, and 7 days after the last treatment, hairs or scales were pulled off at from 3 to 5 points in the infected area in each animal, and were incubated in Sabourand dextrose bouillon.
Evaluation was carried out by monitoring fungal growth after incubation for 8 days.

Assay [2] has as its system Epidermophyton floccosum ATCC 10227. The experiment in a line: in vitro antimicrobial activity, agar dilution test (minimum inhibitory concentrations). Type of assay: cell-based. Here is the method: (§1) The in vitro antimicrobial activity against microorganisms was determined in the agar dilution test (P. Klein, loc. cit.).
For orientation: In agar dilution the substance is mixed into plates at graded concentrations.

Assay [3] has as its system Mikrosporon ferrugineum CBS 317.31. The description is as above. Format: cell-based. How it is done: as §1
Assay [4] has as its system Candida albicans ATCC 14052. The assay is described as above. Format: cell-based. Here is the method:
as §1

Assay [5] deals with Trichophyton mentagroph. ATCC 4807. Described as above. Type of assay: cell-based, Trichophyton mentagrophytes. How it is done:
as §1

Setting [6] is: 0.2% suspension, 7 days after treatment.
[7] abbreviates: 1.0% suspension, 7 days after treatment.

As for `Clc1ccccc1C(c1ccccc1)(c1ccccc1)n1ccnc1` [Clotrimazole, reference compound], the “fraction of animals in which infection was observed” value (“fraction of animals” below) is listed as 3/5 in assay [1] (0.2% suspension, 4 days); 3/5 in assay [1] (0.2% suspension, 7 days); 3/5 in assay [1] (setting [6]); 2/5 in assay [1] (1.0% suspension, 4 days); 0/5 in assay [1] (1.0% suspension, 7 days); 3/5 in assay [1] (setting [7]).

For `CCCN(CCC)CC(C)C[C@H]1CC[C@H](C(C)(C)C)CC1` (stereo partly drawn) [Example 1, trans-3-(4'-tert.-Butylcyclohex-1'-yl)-2-methyl-1-(N-di-n-propylamino)-propane], the Minimum inhibitory concentrations in assay [2], in assay [3], in assay [4] and in assay [5] was less than 0.125 throughout. The “fraction of animals” value is 3/5 in assay [1] (0.2% suspension, 4 days); 2/5 in assay [1] (0.2% suspension, 7 days); 1/5 in assay [1] (setting [6]); 0/5 in assay [1] (0.5% suspension, 4 days); 0/5 in assay [1] (0.5% suspension, 7 days); 0/5 in assay [1] (0.5% suspension, 7 days after treatment). The “fraction of animals” value is given as 1/5 in assay [1] (1.0% suspension, 4 days); 0/5 in assay [1] (1.0% suspension, 7 days); 0/5 in assay [1] (setting [7]).

With `CCCN(CC)CC(C)C[C@H]1CC[C@H](C(C)(C)C)CC1` (stereo partly drawn) [Example 2, trans-3-(4'-tert.-Butylcyclohex-1'-yl)-2-methyl-1-(N-ethyl-N-n-propylamino)-propane], the Minimum inhibitory concentrations is 0.25 in assay [2], less than 0.125 in assay [3], 1 in assay [4] and 0.25 in assay [5].

As to `Cc1cccc(N(C)C(=S)Oc2ccc3ccccc3c2)c1` [Tolnaftate, reference compound], the “fraction of animals” value in assay [1] (1.0% suspension, 4 days) is listed as 0/9; in assay [1] (1.0% suspension, 7 days), 0/9; in assay [1] (setting [7]), 2/9.
